This series relates to Yeast strain SKAM4 RAD54-LacZ reporter. Nature of the series: Radarscreen with luminescence and S9 metabolic activation. The following applies: analysed with S9 compared with without S9; 6 hours at 30° C.; 2% S9.

Here are results for one compound from US20110287439A1, “CLAS[…]” (reMYND NV, priority 2008, published 2011).

Method: Yeast strain SKAM4 bears a RAD54-LacZ reporter construct, which is responsive to agents that affect the integrity of its genomic DNA. Compounds supplied to the growth medium can be evaluated for genotoxicity by determining their effect on reporter gene expression. Reporter activity is measured by adding Beta-Glo® cell lyses buffer, containing a beta-galactosidase substrate, to the yeast culture. The substrate is cleaved by beta-galactosidase to luciferin and galactose. Luciferin is then used in a luciferase reaction to generate light. Metabolic activation of the compounds is obtained by adding post mitochondrial supernatant S9. […]
OD595 of the overnight cultures has to be determined. […]
600 μl S9-mixture is added to 5280 μl of the diluted culture and 600 μl buffer without S9 to 5280 μl of the diluted culture (these are quantities to fill 1 plate). […] The OD595 is measured after the plates have been vortexed rigorously to resuspend the precipitated yeast cells. […]
50 μl Beta-Glo® cell lyses buffer is added to the wells and the plate is vortexed for 45-60 min whereafter luminescence is measured. […]
Luminescence read out blanc correction is performed by subtraction of the luminescence value of medium without yeast cells from the luminescence read out of a sample with compound and dividing it by the corrected and normalized OD595 value. […]

Regarding `CC[n+]1c(-c2ccccc2)c2cc(N)ccc2c2ccc(N)cc21` [ethidium bromide], the “signal (induction factor)” value is “higher signal when analysed with S9 than when analysed without S9”.
